Laboratory results: patent US20250163104A1, “MACROCYCLIC IMMUNOMODULATORS” (priority 2021, published 2025)
Where a SMILES comes first, the peptide text is derived from it. Bridges are numbered along the chain shown (N, C = ends). [ ]: non-standard residue; d: D form. The star is where a group is joined. ξ: configuration not given here. Phe(4-COOH) = N[C@@H](Cc1ccc(C(=O)O)cc1)C(=O)O; Bip = N[C@@H](Cc1ccc(-c2ccccc2)cc1)C(=O)O; Phe(3-Me) = Cc1cccc(C[C@H](N)C(=O)O)c1; Gly(octyl) = CCCCCCCC[C@H](N)C(=O)O; Val(3-OH) = CC(C)(O)[C@H](N)C(=O)O; 3Pal = N[C@@H](Cc1cccnc1)C(=O)O; 4Pal = N[C@@H](Cc1ccncc1)C(=O)O; Cha = N[C@@H](CC1CCCCC1)C(=O)O; Cit = NC(=O)NCCC[C@H](N)C(=O)O; Ile(3ξ) = CCC(C)[C@H](N)C(=O)O; Carboxymethyl = O=C(O)C*; Nle = CCCC[C@H](N)C(=O)O; Orn = NCCC[C@H](N)C(=O)O; Pra = C#CC[C@H](N)C(=O)O; Dab = NCC[C@H](N)C(=O)O; Nva = CCC[C@H](N)C(=O)O; Dap = NC[C@H](N)C(=O)O

Biological target: T1, human PD-1 / PD-L1-Ig binding on Jurkat cell line over-expressing human PD-1 (Jurkat-PD-1) (Homo sapiens, UniProt Q15116)
T1 construct: expressed in transfected cells; host or cells: Jurkat
Test: Jurkat-PD-1 Cell Binding High-Content Screening Assay (CBA)
Assay type: cell-based
Conditions: Jurkat-PD-1 cells, PE-labeled PD-L1-Ig 20 nM final; read-out: Jurkat HPD1_PDL1 IC50
How it was run: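 Read-out: high-content imaging of PE-tagged PD-L1-Ig bound to Jurkat cells overexpressing human PD-1, after fixation with 4% paraformaldehyde and Hoechst 33342 nuclear staining. Ligand was used at 20 nM final for 1 hour, after a 2 h compound exposure at 37° C in serum-containing DMEM.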

T1 sequence (Q15116 25-288): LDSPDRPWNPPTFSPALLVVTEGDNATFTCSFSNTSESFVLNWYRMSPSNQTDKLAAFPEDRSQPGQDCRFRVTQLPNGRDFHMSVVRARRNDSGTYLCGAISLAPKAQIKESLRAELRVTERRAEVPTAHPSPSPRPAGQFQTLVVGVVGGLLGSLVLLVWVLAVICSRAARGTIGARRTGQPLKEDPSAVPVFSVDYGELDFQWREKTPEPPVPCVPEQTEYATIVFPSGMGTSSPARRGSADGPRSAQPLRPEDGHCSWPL

| Structure (SMILES) | IC50 |
| --- | --- |
| CC(C)C[C@H]1NC(=O)[C@H](CCCN)NC(=O)[C@H](CCCNC(N)=O)NC(=O)[C@H](Cc2ccc(-c3ccccc3)cc2)NC(=O)[C@H](C(C)C)NC(=O)[C@H](Cc2c[nH]c3ccccc23)NC(=O)[C@H](CC(=O)O)NC(=O)[C@H](Cc2ccc(OCC(=O)O)cc2)NC(=O)[C@H](Cc2ccc(OCC(=O)O)cc2)NC(=O)CSC[C@@H](C(=O)N[C@@H](C)C(N)=O)NC(=O)[C@H]([C@@H](C)O)NC(=O)[C@H](C(C)C)NC(=O)[C@H](Cc2ccc(O)cc2)NC(=O)[C@H](CCN)NC1=O [Compound 1685] ({CH2CO}-Y(Carboxymethyl)Y(Carboxymethyl)DWV[Bip][Cit][Orn][dL][Dab]YVTCA-NH2; thioether N-14) | 175 nM |
| Cc1cccc(C[C@@H]2NC(=O)[C@H](CC(=O)O)NC(=O)[C@H](Cc3ccc(OCC(=O)O)cc3)NC(=O)[C@H](CN)NC(=O)CSC[C@@H](C(N)=O)NC(=O)[C@H](CC(=O)O)NC(=O)[C@H](C(C)C)NC(=O)[C@H](CC3CCCCC3)NC(=O)[C@H](CCN)NC(=O)[C@@H](CC(C)C)NC(=O)[C@H](CCCN)NC(=O)[C@H](Cc3ccc(OCC(=O)O)cc3)NC(=O)[C@H](Cc3ccc(-c4ccccc4)cc3)NC(=O)[C@H](Cc3ccc(OCC(=O)O)cc3)NC2=O)c1 [Compound 1781] ({CH2CO}-[Dap]Y(Carboxymethyl)D[Phe(3-Me)]Y(Carboxymethyl)[Bip]Y(Carboxymethyl)[Orn][dL][Dab][Cha]VDC-NH2; thioether N-14) | 14.2 nM |
| CCCC[C@@H]1NC(=O)[C@H](CCN)NC(=O)[C@@H](CC(C)C)NC(=O)[C@H](CCCN)NC(=O)[C@H](C(C)C)NC(=O)[C@H](Cc2ccc(-c3ccccc3)cc2)NC(=O)[C@H](C(C)C)NC(=O)[C@H](Cc2c[nH]c3ccccc23)NC(=O)[C@H](CC(=O)O)NC(=O)[C@H](Cc2ccc(O)cc2)NC(=O)[C@H](CC(N)=O)NC(=O)CSC[C@@H](C(=O)N[C@@H](C)C(N)=O)NC(=O)[C@H]([C@@H](C)O)NC(=O)[C@H](C(C)C)NC1=O [Compound 1171] ({CH2CO}-NYDWV[Bip]V[Orn][dL][Dab][Nle]VTCA-NH2; thioether N-14) | 26.4 nM |
| CC(C)C[C@H]1NC(=O)[C@H](CCCN)NC(=O)[C@H](CCC(=O)O)NC(=O)[C@H](Cc2ccc(-c3ccccc3)cc2)NC(=O)[C@H](C(C)C)NC(=O)[C@H](Cc2c[nH]c3ccccc23)NC(=O)[C@H](CC(=O)O)NC(=O)[C@H](Cc2ccc(OCC(=O)O)cc2)NC(=O)[C@H](CN)NC(=O)CSC[C@@H](C(=O)N[C@@H](C)C(N)=O)NC(=O)[C@H]([C@@H](C)O)NC(=O)[C@H](C(C)C)NC(=O)[C@H](CC2CCCCC2)NC(=O)[C@H](CCC(=O)O)NC1=O [Compound 1515] ({CH2CO}-[Dap]Y(Carboxymethyl)DWV[Bip]E[Orn][dL]E[Cha]VTCA-NH2; thioether N-14) | 28.8 nM |
| C#CC[C@H](NC(=O)[C@H](CCN)NC(=O)[C@@H]1CSCC(=O)N[C@@H](CCC)C(=O)N[C@@H](Cc2ccc(OCC(=O)O)cc2)C(=O)N[C@@H](CC(=O)O)C(=O)N[C@@H](Cc2cccc(C)c2)C(=O)N[C@@H](Cc2ccc(OCC(=O)O)cc2)C(=O)N[C@@H](Cc2ccc(-c3ccccc3)cc2)C(=O)N[C@@H](Cc2ccc(OCC(=O)O)cc2)C(=O)N[C@@H](CCCN)C(=O)N[C@H](CC(C)C)C(=O)N[C@@H](CCN)C(=O)N[C@@H](CC2CCCCC2)C(=O)N[C@@H](C(C)C)C(=O)N[C@@H](CCC(=O)O)C(=O)N1)C(=O)O [Compound 1826] ({CH2CO}-[Nva]Y(Carboxymethyl)D[Phe(3-Me)]Y(Carboxymethyl)[Bip]Y(Carboxymethyl)[Orn][dL][Dab][Cha]VEC[Dab][Pra]-OH; thioether N-14) | 4 nM |
| Cc1cccc(C[C@@H]2NC(=O)[C@H](CC(=O)O)NC(=O)[C@H](Cc3ccc(OCC(=O)O)cc3)NC(=O)[C@H](C(C)(C)O)NC(=O)CSC[C@@H](C(=O)N[C@@H](CCN)C(N)=O)NC(=O)[C@H](CO)NC(=O)[C@H](C(C)(C)O)NC(=O)[C@H](CC3CCCCC3)NC(=O)[C@H](CCN)NC(=O)[C@@H](CC(C)C)NC(=O)[C@H](CCCN)NC(=O)[C@H](Cc3ccc(OCC(=O)O)cc3)NC(=O)[C@H](Cc3ccc(-c4ccccc4)cc3)NC(=O)[C@H](Cc3ccc(OCC(=O)O)cc3)NC2=O)c1 [Compound 2058] ({CH2CO}-[Val(3-OH)]Y(Carboxymethyl)D[Phe(3-Me)]Y(Carboxymethyl)[Bip]Y(Carboxymethyl)[Orn][dL][Dab][Cha][Val(3-OH)]SC[Dab]-NH2; thioether N-14) | 25.2 nM |
| Cc1cccc(C[C@@H]2NC(=O)[C@H](CC(=O)O)NC(=O)[C@H](Cc3ccc(C(=O)O)cc3)NC(=O)[C@H](Cc3ccncc3)NC(=O)CSC[C@@H](C(=O)N[C@@H](CCN)C(N)=O)NC(=O)[C@H](CCC(N)=O)NC(=O)[C@H](C(C)C)NC(=O)[C@H](CC3CCCCC3)NC(=O)[C@H](CCN)NC(=O)[C@@H](CC(C)C)NC(=O)[C@H](CCCN)NC(=O)[C@H](Cc3ccc(OCC(=O)O)cc3)NC(=O)[C@H](Cc3ccc(-c4ccccc4)cc3)NC(=O)[C@H](Cc3ccc(OCC(=O)O)cc3)NC2=O)c1 [Compound 2309] ({CH2CO}-[4Pal][Phe(4-COOH)]D[Phe(3-Me)]Y(Carboxymethyl)[Bip]Y(Carboxymethyl)[Orn][dL][Dab][Cha]VQC[Dab]-NH2; thioether N-14) | 5.9 nM |
| CCC(C)[C@@H]1NC(=O)[C@H](Cc2ccc(-c3ccccc3)cc2)NC(=O)[C@H](C(C)C)NC(=O)[C@H](Cc2cccc(C)c2)NC(=O)[C@H](CC(=O)O)NC(=O)[C@H](Cc2cccnc2)NC(=O)[C@H](Cc2ccccc2)NC(=O)CSC[C@@H](C(=O)N[C@@H](C)C(N)=O)NC(=O)[C@H]([C@@H](C)O)NC(=O)[C@H](C(C)C)NC(=O)[C@H](CC2CCCCC2)NC(=O)[C@H](CCN)NC(=O)[C@@H](CC(C)C)NC(=O)[C@H](CCCN)NC1=O (stereo partly drawn) [Compound 2234] ({CH2CO}-F[3Pal]D[Phe(3-Me)]V[Bip][Ile(3ξ)][Orn][dL][Dab][Cha]VTCA-NH2; thioether N-14) | 70.8 nM |

The remaining lines, values ahead:

| IC50 | Structure (SMILES) |
| --- | --- |
| 76.8 nM | C#CC[C@H](NC(=O)CNC(=O)[C@@H]1CSCC(=O)N[C@@H](CCN)C(=O)N[C@@H](Cc2ccc(OCC(=O)O)cc2)C(=O)N[C@@H](CC(=O)O)C(=O)N[C@@H](Cc2c[nH]c3ccccc23)C(=O)N[C@@H](C(C)C)C(=O)N[C@@H](Cc2ccc(-c3ccccc3)cc2)C(=O)N[C@@H](C(C)CC)C(=O)N[C@@H](CCCN)C(=O)N[C@H](CC(C)C)C(=O)N[C@@H](CCN)C(=O)N[C@@H](CC2CCCCC2)C(=O)N[C@@H](C(C)(C)O)C(=O)N[C@@H](CO)C(=O)N1)C(=O)O (stereo partly drawn) [Compound 2322] ({CH2CO}-[Dab]Y(Carboxymethyl)DWV[Bip][Ile(3ξ)][Orn][dL][Dab][Cha][Val(3-OH)]SCG[Pra]-OH; thioether N-14) |
| 4 nM | CC(C)C[C@H]1NC(=O)[C@H](CCCN)NC(=O)[C@H](C(C)C)NC(=O)[C@H](Cc2ccc(-c3ccccc3)cc2)NC(=O)[C@H](C(C)C)NC(=O)[C@H](Cc2c[nH]c3ccccc23)NC(=O)[C@H](CC(=O)O)NC(=O)[C@H](Cc2ccc(OCC(=O)O)cc2)NC(=O)[C@H](CN)NC(=O)CSC[C@@H](C(=O)N[C@@H](C)C(N)=O)NC(=O)[C@H]([C@@H](C)O)NC(=O)[C@H](C(C)C)NC(=O)[C@H](CC2CCCCC2)NC(=O)[C@H](CCN)NC1=O [Compound 1312] ({CH2CO}-[Dap]Y(Carboxymethyl)DWV[Bip]V[Orn][dL][Dab][Cha]VTCA-NH2; thioether N-14) |
| 110 nM | CCCCCCCC[C@@H]1NC(=O)[C@H](CCN)NC(=O)[C@@H](CC(C)C)NC(=O)[C@H](CCCN)NC(=O)[C@H](CCCNC(N)=O)NC(=O)[C@H](Cc2ccc(-c3ccccc3)cc2)NC(=O)[C@H](C(C)C)NC(=O)[C@H](Cc2c[nH]c3ccccc23)NC(=O)[C@H](CC(=O)O)NC(=O)[C@H](Cc2ccc(OCC(=O)O)cc2)NC(=O)[C@H](CN)NC(=O)CSC[C@@H](C(=O)N[C@@H](C)C(N)=O)NC(=O)[C@H]([C@@H](C)O)NC(=O)[C@H](C(C)C)NC1=O [Compound 1352] ({CH2CO}-[Dap]Y(Carboxymethyl)DWV[Bip][Cit][Orn][dL][Dab][Gly(octyl)]VTCA-NH2; thioether N-14) |
| 20.3 nM | CC(C)C[C@H]1NC(=O)[C@H](CN)NC(=O)[C@H](C(C)C)NC(=O)[C@H](Cc2ccc(-c3ccccc3)cc2)NC(=O)[C@H](C(C)C)NC(=O)[C@H](Cc2c[nH]c3ccccc23)NC(=O)[C@H](CC(=O)O)NC(=O)[C@H](Cc2ccc(OCC(=O)O)cc2)NC(=O)[C@H](CN)NC(=O)CSC[C@@H](C(=O)NCC(N)=O)NC(=O)[C@H](CO)NC(=O)[C@H](C(C)C)NC(=O)[C@H](CC2CCCCC2)NC(=O)[C@H](CC(N)=O)NC1=O [Compound 1652] ({CH2CO}-[Dap]Y(Carboxymethyl)DWV[Bip]V[Dap][dL]N[Cha]VSCG-NH2; thioether N-14) |
| 23 nM | CC(C)C[C@H]1NC(=O)[C@H](CCCN)NC(=O)[C@H](CCC(=O)O)NC(=O)[C@H](Cc2ccc(-c3ccccc3)cc2)NC(=O)[C@H](C(C)C)NC(=O)[C@H](Cc2c[nH]c3ccccc23)NC(=O)[C@H](CC(=O)O)NC(=O)[C@H](Cc2ccc(OCC(=O)O)cc2)NC(=O)[C@H](Cc2ccc(OCC(=O)O)cc2)NC(=O)CSC[C@@H](C(=O)N[C@@H](C)C(N)=O)NC(=O)[C@H]([C@@H](C)O)NC(=O)[C@H](C(C)C)NC(=O)[C@H](CC2CCCCC2)NC(=O)[C@H](Cc2cnc[nH]2)NC1=O [Compound 1593] |
| 32.9 nM | CC(C)[C@@H]1NC(=O)[C@H](Cc2c[nH]c3ccccc23)NC(=O)[C@H](CC(=O)O)NC(=O)[C@H](Cc2ccc(C(=O)O)cc2)NC(=O)[C@H](Cc2ccc(OCC(=O)O)cc2)NC(=O)CSC[C@@H](C(=O)N[C@@H](C)C(N)=O)NC(=O)[C@H]([C@@H](C)O)NC(=O)[C@H](C(C)C)NC(=O)[C@H](CC2CCCCC2)NC(=O)[C@H](CCN)NC(=O)[C@@H](Cc2ccc(O)cc2)NC(=O)[C@H](CCCN)NC(=O)[C@H](CCC(=O)O)NC(=O)[C@H](Cc2ccc(-c3ccccc3)cc2)NC1=O [Compound 1449] ({CH2CO}-Y(Carboxymethyl)[Phe(4-COOH)]DWV[Bip]E[Orn][dY][Dab][Cha]VTCA-NH2; thioether N-14) |
